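1) Cells in 96-well plates. 2) Compound, 48 h, 5 concentrations. 3) Linear interpolation between surrounding doses. 4) Unreached endpoint = highest concentration. GI50 marks 50% less growth. TGI denotes the concentration required for complete inhibition of growth.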
Experiments:
Test in all cases: inhibition of tumour cell growth, NCI panel, 48 h
HOP-92 NSCLC = system: HOP-92 NSCLC
CAKI-1 renal = system: CAKI-1 renal
OVCAR-5 ovarian = system: OVCAR-5 ovarian
HL-60(TB) leukemia = system: HL-60(TB) leukemia
HCT-15 colon = system: HCT-15 colon
TK-10 renal = system: TK-10 renal
CCRF-CEM leukemia = system: CCRF-CEM leukemia
HCC-2998 colon = system: HCC-2998 colon
SK-OV-3 ovarian = system: SK-OV-3 ovarian
MCF7 breast = system: MCF7 breast
K-562 leukemia = system: K-562 leukemia
UACC-257 melanoma = system: UACC-257 melanoma
SK-MEL-28 melanoma = system: SK-MEL-28 melanoma
LOX IMVI melanoma = system: LOX IMVI melanoma
UACC-62 melanoma = system: UACC-62 melanoma
NCI-H23 lung = system: NCI-H23 lung
MDA-MB-231 breast = system: MDA-MB-231 breast
COLO 205 colon = system: COLO 205 colon
NCI-H226 lung = system: NCI-H226 lung
RXF 393 renal = system: RXF 393 renal
NCI-H522 lung = system: NCI-H522 lung
MDA-MB-468 breast = system: MDA-MB-468 breast
SNB-75 CNS = system: SNB-75 CNS
U251 CNS = system: U251 CNS
BT-549 breast = system: BT-549 breast
IGROV1 ovarian = system: IGROV1 ovarian
SN12C renal = system: SN12C renal
OVCAR-4 ovarian = system: OVCAR-4 ovarian
T-47D breast = system: T-47D breast
NCI-H460 lung = system: NCI-H460 lung
SF-268 CNS = system: SF-268 CNS
HCT-116 colon = system: HCT-116 colon
A498 renal = system: A498 renal
MALME-3M melanoma = system: MALME-3M melanoma
HOP-62 NSCLC = system: HOP-62 NSCLC
DU-145 prostate = system: DU-145 prostate
SF-295 CNS = system: SF-295 CNS
UO-31 renal = system: UO-31 renal
SF-539 CNS = system: SF-539 CNS
M14 melanoma = system: M14 melanoma
NCI/ADR-RES ovarian = system: NCI/ADR-RES ovarian
HT29 colon = system: HT29 colon
SK-MEL-5 melanoma = system: SK-MEL-5 melanoma
OVCAR-8 ovarian = system: OVCAR-8 ovarian
EKVX NSCLC = system: EKVX NSCLC
SR leukemia = system: SR leukemia
HS 578T breast = system: HS 578T breast
RPMI-8226 leukemia = system: RPMI-8226 leukemia
SW-620 colon = system: SW-620 colon
KM12 colon = system: KM12 colon
A549 NSCLC = system: A549 NSCLC
SNB-19 CNS = system: SNB-19 CNS
786-0 renal = system: 786-0 renal
SK-MEL-2 melanoma = system: SK-MEL-2 melanoma
ACHN renal = system: ACHN renal
OVCAR-3 ovarian = system: OVCAR-3 ovarian
PC-3 prostate = system: PC-3 prostate
MDA-MB-435 = system: MDA-MB-435
MOLT-4 leukemia = system: MOLT-4 leukemia

COc1ccc(C2(SCCNCc3cc(N(C)C)ccn3)c3ccccc3C=Cc3ccccc32)cc1
GI50 (HOP-92 NSCLC): 1310 nM | TGI (HOP-92 NSCLC): 6250 nM | GI50 (CAKI-1 renal): 1330 nM | TGI (CAKI-1 renal): 19200 nM | GI50 (OVCAR-5 ovarian): 364 nM | TGI (OVCAR-5 ovarian): 12500 nM | GI50 (HL-60(TB) leukemia): 62.3 nM | TGI (HL-60(TB) leukemia): 13700 nM | GI50 (HCT-15 colon): 51 nM | TGI (HCT-15 colon): 13500 nM | GI50 (TK-10 renal): 12100 nM | TGI (TK-10 renal): 25800 nM | GI50 (CCRF-CEM leukemia): 106 nM | TGI (CCRF-CEM leukemia): 19300 nM | GI50 (HCC-2998 colon): 93.2 nM | TGI (HCC-2998 colon): 527 nM | GI50 (SK-OV-3 ovarian): 497 nM | TGI (SK-OV-3 ovarian): 13900 nM | GI50 (MCF7 breast): 40 nM | TGI (MCF7 breast): 13200 nM | GI50 (K-562 leukemia): 40.7 nM | TGI (K-562 leukemia): 17400 nM | GI50 (UACC-257 melanoma): 10800 nM | TGI (UACC-257 melanoma): 23900 nM | GI50 (SK-MEL-28 melanoma): 5290 nM | TGI (SK-MEL-28 melanoma): 21200 nM | GI50 (LOX IMVI melanoma): 557 nM | TGI (LOX IMVI melanoma): 12300 nM | GI50 (UACC-62 melanoma): 460 nM | TGI (UACC-62 melanoma): 17700 nM | GI50 (NCI-H23 lung): 463 nM | TGI (NCI-H23 lung): 13900 nM | GI50 (MDA-MB-231 breast): 143 nM | TGI (MDA-MB-231 breast): 446 nM | GI50 (COLO 205 colon): 169 nM | TGI (COLO 205 colon): 521 nM | GI50 (NCI-H226 lung): 4800 nM | TGI (NCI-H226 lung): 19200 nM | GI50 (RXF 393 renal): 283 nM | TGI (RXF 393 renal): 3390 nM | GI50 (NCI-H522 lung): 90 nM | TGI (NCI-H522 lung): 455 nM | GI50 (MDA-MB-468 breast): 50.9 nM | TGI (MDA-MB-468 breast): 388 nM | GI50 (SNB-75 CNS): 176 nM | TGI (SNB-75 CNS): 907 nM | GI50 (U251 CNS): 62 nM | TGI (U251 CNS): 12100 nM | GI50 (BT-549 breast): 471 nM | TGI (BT-549 breast): 9580 nM | GI50 (IGROV1 ovarian): 459 nM | TGI (IGROV1 ovarian): 19200 nM | GI50 (SN12C renal): 290 nM | TGI (SN12C renal): 15200 nM | GI50 (OVCAR-4 ovarian): 5150 nM | TGI (OVCAR-4 ovarian): 22000 nM | GI50 (T-47D breast): 475 nM | TGI (T-47D breast): 18700 nM | GI50 (NCI-H460 lung): 281 nM | TGI (NCI-H460 lung): 11200 nM | GI50 (SF-268 CNS): 717 nM | TGI (SF-268 CNS): 18500 nM | GI50 (HCT-116 colon): 40.4 nM | TGI (HCT-116 colon): 11600 nM | GI50 (A498 renal): 11500 nM | TGI (A498 renal): 24900 nM | GI50 (MALME-3M melanoma): 514 nM | TGI (MALME-3M melanoma): 15800 nM | GI50 (HOP-62 NSCLC): 528 nM | TGI (HOP-62 NSCLC): 17900 nM | GI50 (DU-145 prostate): 335 nM | TGI (DU-145 prostate): 3630 nM | GI50 (SF-295 CNS): 268 nM | TGI (SF-295 CNS): 14200 nM | GI50 (UO-31 renal): 1760 nM | TGI (UO-31 renal): 17800 nM | GI50 (SF-539 CNS): 227 nM | TGI (SF-539 CNS): 594 nM | GI50 (M14 melanoma): 34.7 nM | TGI (M14 melanoma): 621 nM | GI50 (NCI/ADR-RES ovarian): 205 nM | TGI (NCI/ADR-RES ovarian): 513 nM | GI50 (HT29 colon): 337 nM | TGI (HT29 colon): 7000 nM | GI50 (SK-MEL-5 melanoma): 319 nM | TGI (SK-MEL-5 melanoma): 11800 nM | GI50 (OVCAR-8 ovarian): 238 nM | TGI (OVCAR-8 ovarian): 15700 nM | GI50 (EKVX NSCLC): 382 nM | TGI (EKVX NSCLC): 19400 nM | GI50 (SR leukemia): 57 nM | TGI (SR leukemia): > 33200 nM | GI50 (HS 578T breast): 204 nM | TGI (HS 578T breast): 1770 nM | GI50 (RPMI-8226 leukemia): 124 nM | TGI (RPMI-8226 leukemia): > 49000 nM | GI50 (SW-620 colon): 74.6 nM | TGI (SW-620 colon): 12500 nM | GI50 (KM12 colon): 322 nM | TGI (KM12 colon): 11700 nM | GI50 (A549 NSCLC): 147 nM | TGI (A549 NSCLC): 16800 nM | GI50 (SNB-19 CNS): 534 nM | TGI (SNB-19 CNS): 19100 nM | GI50 (786-0 renal): 873 nM | TGI (786-0 renal): 17200 nM | GI50 (SK-MEL-2 melanoma): 252 nM | TGI (SK-MEL-2 melanoma): 724 nM | GI50 (ACHN renal): 1900 nM | TGI (ACHN renal): 19900 nM | GI50 (OVCAR-3 ovarian): 342 nM | TGI (OVCAR-3 ovarian): 12000 nM | GI50 (PC-3 prostate): 395 nM | TGI (PC-3 prostate): 6060 nM | GI50 (MDA-MB-435): 25.3 nM | TGI (MDA-MB-435): 63.9 nM | GI50 (MOLT-4 leukemia): 610 nM | TGI (MOLT-4 leukemia): 12000 nM

Source: PubChem BioAssay (NCI)
